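Method: 48-hour compound exposure of cells in 96-well plates, five concentrations, linear interpolation of endpoints. At the GI50, growth is halved.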 The source made the active and inactive calls. No stated cut-off is given here; in the data, active = GI50 up to about 1.1 µM and inactive = higher.

Common to all, as to assay: NCI tumour cell line growth inhibition, 48 h
The subject of assay [1] is ACHN.
Assay [2] deals with CCRF-CEM.
For assay [3], the system named is HL-60.
Assay [4] has as its system HOP-18.
Assay [5] deals with K562.
Assay [6] has as its system KM12.
Assay [7] deals with LOX IMVI.
Assay [8] concerns NCI-H522.
The subject of assay [9] is OVCAR-5.
Assay [10] relates to OVCAR-8.
In assay [11] the test system is SF-268.
In assay [12] the test system is SF-539.
The test system of assay [13] is SK-MEL-2.
Assay [14] relates to SNB-19.
The subject of assay [15] is UACC-257.
Assay [16] concerns UO-31.
The test system of assay [17] is EKVX.

For the molecule `CN(C)CCCNc1ccc2ncn3c4ccccc4c(=O)c1c23`, the GI50 in assay [1] is 4.81 µM (inactive); in assay [2] it was 4.39 µM (inactive); in [3] it was 6.41 µM (inactive); in [4], 5.73 µM (inactive); in assay [5], 3.77 µM (inactive); in [6], 5.87 µM (inactive). The GI50 in assay [7] is 3.51 µM (inactive); in [8], 6.17 µM (inactive); in assay [9] it was 10.7 µM (inactive); in assay [10], 4.9 µM (inactive); in assay [11] it was 7.6 µM (inactive); in assay [12], 8.73 µM (inactive). In addition, the GI50 in assay [13] was 13.6 µM (inactive); in [14], 20.3 µM (inactive); in assay [15] it was 14.6 µM (inactive); in assay [16], 9.27 µM (inactive).
With `Cc1ccc(/N=N/c2c(-c3ccccc3)nn(C(=O)CC(=O)Nc3ccc(Cl)cc3)c2-c2ccccc2)cc1`, the GI50 in assay [1] is 79.6 µM (inactive); in [2] it was 18.6 µM (inactive); in assay [17] it was 2.3 µM (inactive); in assay [3] it was 32.4 µM (inactive); in assay [4], > 100 µM (inactive); in assay [5] it was 42.1 µM (inactive). In addition, the GI50 in [6] was 38.3 µM (inactive); in [7], 46.7 µM (inactive); in assay [8] it was 37.8 µM (inactive); in assay [9], 48.6 µM (inactive); in assay [10], 32.1 µM (inactive); in assay [11] it was 70.5 µM (inactive). Further, the GI50 in assay [12] is 58.9 µM (inactive); in [13], 81.8 µM (inactive); in assay [14], 49.7 µM (inactive); in assay [15] it was > 100 µM (inactive); in assay [16], 27.7 µM (inactive).
Consider `CC1c2[nH]c3ccccc3c2CCN1O` (stereo not drawn), for which the GI50 in assay [1], in [2], in assay [17], in assay [3], in assay [4] and in assay [5] was > 100 µM (inactive) throughout. Further, the GI50 in assay [6], in [7], in assay [8], in assay [9], in assay [10] and in [11] was > 100 µM (inactive) each time. The GI50 is > 100 µM (inactive) in assay [12]; > 100 µM (inactive) in [13]; > 100 µM (inactive) in assay [14]; > 100 µM (inactive) in assay [15]; 29.4 µM (inactive) in assay [16].
Take `CN(C)c1n/c(=N/c2ccc3c(c2)OCO3)ss1`: the GI50 in [1] is 84.9 µM (inactive); in [2] it was 32.5 µM (inactive); in assay [17], 49.9 µM (inactive); in assay [3], 19 µM (inactive); in assay [4] it was > 100 µM (inactive); in assay [5], 34.8 µM (inactive). Moreover, the GI50 in assay [6] was 51.5 µM (inactive); in assay [7], 64 µM (inactive); in assay [8], 26.7 µM (inactive); in assay [9] it was > 100 µM (inactive); in [10] it was 72.1 µM (inactive); in assay [11] it was 47.6 µM (inactive). The GI50 in [12] is 67.6 µM (inactive); in assay [13] it was > 100 µM (inactive); in assay [14] it was 74.5 µM (inactive); in assay [15] it was > 100 µM (inactive); in assay [16], 27.2 µM (inactive).
`C=C1CCC2C(C)(CO)C(O)CCC2(C)C1C/C=C1/CCOC1=O` (stereo not drawn): the GI50 in assay [1], in assay [2], in assay [17], in [3], in assay [4] and in assay [5] was > 100 µM (inactive) in each case. Also, the GI50 in assay [6] is > 100 µM (inactive); in assay [7], > 100 µM (inactive); in assay [8] it was 31.3 µM (inactive); in [9] it was > 100 µM (inactive); in [10], > 100 µM (inactive); in assay [12], > 100 µM (inactive). Further, the GI50 in assay [13], in assay [14], in assay [15] and in [16] was > 100 µM (inactive) each time.
On to `NC(=O)C12CCC1C1CCCCC12N1CCOCC1` (stereo not drawn), for which the GI50 in assay [1], in assay [2], in assay [17], in [3], in assay [4] and in assay [5] was > 100 µM (inactive) throughout. In addition, the GI50 in [6], in assay [7], in assay [8], in assay [9], in assay [10] and in assay [11] was > 100 µM (inactive) each time. In addition, the GI50 in assay [12], in [13], in [14] and in assay [16] was > 100 µM (inactive) each time.
Take `COC(=O)C1Cc2c(n(C)c3ccccc23)C(c2ccccc2)N1` (stereo not drawn): the GI50 in assay [1] is 39.3 µM (inactive); in [2], 52.1 µM (inactive); in assay [17] it was 92.3 µM (inactive); in [3], 10.1 µM (inactive); in assay [4] it was > 100 µM (inactive); in assay [5], 47.6 µM (inactive). The GI50 was > 100 µM (inactive) in assay [6]; 78.7 µM (inactive) in assay [7]; 16.9 µM (inactive) in assay [8]; > 100 µM (inactive) in [9]; > 100 µM (inactive) in [10]; > 100 µM (inactive) in assay [11]. Further, the GI50 in assay [12] was > 10 µM (inactive); in [13], 47.6 µM (inactive); in [14], > 100 µM (inactive); in assay [15], 15.2 µM (inactive); in [16], > 100 µM (inactive).
With `Cc1cn2c(=O)c3ncn(C4OC(CO)C(O)C4O)c3n(C)c2n1` (stereo not drawn), the GI50 in [1], in assay [2], in assay [17], in assay [3], in assay [4] and in assay [5] was > 100 µM (inactive) throughout. In addition, the GI50 in assay [6], in assay [7], in assay [8], in assay [9], in assay [10] and in assay [11] was > 100 µM (inactive) in each case. The GI50 in assay [12], in [13], in assay [14], in assay [15] and in [16] was > 100 µM (inactive) each time.
For `CCCNc1ncnc2c1cnn2C`, the GI50 in [1], in [2], in assay [3], in assay [4], in [5] and in assay [6] was > 100 µM (inactive) throughout. Besides, the GI50 in assay [7], in assay [8], in [9], in [10], in assay [11] and in assay [12] was > 100 µM (inactive) in each case. The GI50 in [13], in [14] and in assay [15] was > 100 µM (inactive) in each case.
Turning to `O=C1c2ccccc2C(=O)c2sc(Nc3cccc(Cl)c3)nc21`, the GI50 in [1] is 1.61 µM (inactive); in assay [2], 1.36 µM (inactive); in assay [17], 2.38 µM (inactive); in assay [3] it was 0.172 µM (active); in [4], 1.63 µM (inactive); in assay [5], 1.57 µM (inactive). Also, the GI50 in assay [6] is 2.03 µM (inactive); in assay [7], 1.27 µM (inactive); in [8] it was 1.45 µM (inactive); in [9] it was 2.22 µM (inactive); in [10] it was 1.6 µM (inactive); in assay [11] it was 2.01 µM (inactive). In addition, the GI50 in assay [12] is 1.93 µM (inactive); in assay [13] it was 1.79 µM (inactive); in [14], 2.07 µM (inactive); in assay [15] it was 1.52 µM (inactive); in assay [16], 2.3 µM (inactive).
In the case of `CC1C[C@H](C)CC(C(O)CC2CC(=O)N(Cc3ccccc3)C(=O)C2)C1O` (stereo partly drawn), the GI50 in [1], in [2], in [17], in assay [3], in assay [4] and in [5] was > 100 µM (inactive) in each case. For the same molecule, the GI50 in assay [6] was 48.9 µM (inactive); in assay [7], > 100 µM (inactive); in [8] it was > 100 µM (inactive); in [9] it was > 100 µM (inactive); in assay [10], > 100 µM (inactive); in assay [11], > 100 µM (inactive). Besides, the GI50 in [12], in assay [14], in [15] and in assay [16] was > 100 µM (inactive) throughout.
`C=C1CC[C@@H]2C(C)(C)CCC[C@@]2(C)[C@@H]1Cc1cc(O)ccc1O`: the GI50 in assay [1] was 3.56 µM (inactive); in [2] it was 0.558 µM (active); in assay [17] it was 4.65 µM (inactive); in assay [3], 1.53 µM (inactive); in [4], 11.2 µM (inactive); in assay [5] it was 3.44 µM (inactive). Besides, the GI50 in assay [6] was 6.18 µM (inactive); in [7] it was 2.16 µM (inactive); in assay [8] it was 1.84 µM (inactive); in [9], 15.1 µM (inactive); in [10], 3.88 µM (inactive); in [11] it was 3.38 µM (inactive). Further, the GI50 in assay [12] was 1.93 µM (inactive); in assay [13], 2.04 µM (inactive); in assay [14], 6.24 µM (inactive); in assay [15], 1.93 µM (inactive); in assay [16] it was 2.52 µM (inactive).

For the origin of these results see ChEMBL document CHEMBL1201862, “PubChem BioAssay data set” (2004).
